One assay concerns the target HiBiT tagged Wee1 (Homo sapiens, UniProt P30291). Put plainly: Wee1 protein degradation assay (HiBiT assay). The following applies: engineered HT-1080 cells, 20 hours; for Dmax: maximum percentage of Wee1 degradation, read-out: HiBiT Wee1: Dmax. The assay is classed as cell-based.
The test system of another assay is NCI-H1048 cells. Nature of the assay: NCI-H1048 cell proliferation assay (CTG assay). Format: cell-based. The note with it: 120 hours, read-out: CTG cellular assay_H1048: IC50. As for the experimental part:
NCI-H1048 Cell Proliferation Assay (CTG Assay) The following is an example of an assay that can be used to determine the anti-proliferative activity of Wee1 PROTACs in a small cell lung cancer cell line, NCI-H1048 (ATCC Cat #CRL-5853). This cell line was cultured in RPMI-1640 medium supplemented with 10% FBS. About 1,200 NCI-H1048 cells in 50 μL of culture medium were seeded into a 384-well plate (Cat #3764, Corning), pre-spotted with compounds using the Echo 650 liquid handler (Beckman). The dose-response-curve (DRC) typically has 10-points with a highest concentration at 10 μM, and half-log diluted to as low as 0.316 nM, plus a DMSO control. Assay plates were incubated at 37° C. with 5% CO2 for 120 hours. After that, 20 μL of the CellTiter-Glo (CTG) Luminescent Cell Viability Assay Reagent (Cat #G7573, Promega) was added to each well and incubated at room temperature for 30 minutes. Luminescence was then measured with Pherastar microplate reader (BMG Labtech). All percentage of cell growth inhibition curves were processed using Collaborative Drug Discovery Vault.
Cell viability reads in compound-treated wells were normalized to that of DMSO control and expressed as Percent of Control (PoC, y). A four Parameter Logistic Model was used to determine the compound's EC50 and DC50, using the following equation: […]

This note sets out measurements from patent US20250049798A1, “WEE1 PROTEIN KINASE DEGRADATION AGENT AND USE THEREOF” (HANGZHOU GLUBIO PHARMACEUTICAL CO. LTD., priority 2021, published 2025).

Like-named read-outs stand apart in the source and are kept apart here.

As a reminder, the DC50 is the midpoint of the concentration-degradation curve. The term Dmax denotes the greatest extent of degradation seen. In general, IC50 refers to the concentration that inhibits the measured activity by half.

Sequence of HiBiT tagged Wee1 (P30291 whole entry): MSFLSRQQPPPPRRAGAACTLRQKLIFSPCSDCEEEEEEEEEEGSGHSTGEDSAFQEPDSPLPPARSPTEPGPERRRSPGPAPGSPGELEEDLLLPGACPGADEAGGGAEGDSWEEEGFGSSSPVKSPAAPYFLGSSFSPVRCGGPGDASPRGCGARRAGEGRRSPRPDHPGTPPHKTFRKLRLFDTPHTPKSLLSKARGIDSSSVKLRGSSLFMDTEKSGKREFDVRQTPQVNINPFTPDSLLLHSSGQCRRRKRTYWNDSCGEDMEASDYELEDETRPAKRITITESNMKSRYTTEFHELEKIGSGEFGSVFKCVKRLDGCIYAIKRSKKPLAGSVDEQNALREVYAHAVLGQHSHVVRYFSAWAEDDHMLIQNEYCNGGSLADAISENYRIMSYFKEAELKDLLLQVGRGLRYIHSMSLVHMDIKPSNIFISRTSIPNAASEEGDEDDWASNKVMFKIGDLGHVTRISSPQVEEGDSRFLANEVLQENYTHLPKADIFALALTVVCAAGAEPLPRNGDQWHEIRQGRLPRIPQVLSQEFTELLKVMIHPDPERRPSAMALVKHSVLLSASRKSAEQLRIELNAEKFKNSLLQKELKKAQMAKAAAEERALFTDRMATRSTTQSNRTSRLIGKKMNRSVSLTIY

Regarding `C=CCn1c(=O)c2cnc(Nc3ccc(N4C[C@@H](C)N(CC5CCN(c6ccc(NC7CCC(=O)NC7=O)cc6F)CC5)[C@@H](C)C4)cc3)nc2n1-c1ccc2c(n1)[C@@](O)(CC)CC2` (some centres unmarked) [Compound 169], at HiBiT tagged Wee1, the half-maximal degradation concentration (DC50) was less than 100 nM and the maximal degradation (Dmax) is greater than 75%. Further, in the assay with NCI-H1048 cells (Homo sapiens), the IC50 was no more than 25 nM.

For the compound `C=CCn1c(=O)c2cnc(Nc3ccc(C4CCN(CN5CCN(c6ccc7c(N8CCC(=O)NC8=O)nn(C)c7c6)CC5)CC4)cc3)nc2n1-c1cccc(C(C)(C)O)n1` [Compound 89], at HiBiT tagged Wee1, the half-maximal degradation concentration (DC50) is less than 100 nM and the Dmax was greater than 75%. Besides, the half-inhibitory concentration (IC50) in the assay on NCI-H1048 cells (Homo sapiens) is no more than 25 nM.

For `C=CCn1c(=O)c2cnc(Nc3ccc(N4CCN(CC5CCN(c6cc7c(cc6F)c(N6CCC(=O)NC6=O)nn7C)CC5)CC4)cc3)nc2n1-c1ccc2c(n1)[C@](C)(O)CC2` [Compound 196], on HiBiT tagged Wee1, the half-maximal degradation concentration (DC50) was less than 100 nM and the Dmax was greater than 75%. Further, the half-inhibitory concentration (IC50) with NCI-H1048 cells (Homo sapiens) is no more than 25 nM.

For the compound `C=CCn1c(=O)c2cnc(Nc3ccc(N4CCN(CCCCc5ccc6c(c5)n(C)c(=O)n6C5CCC(=O)NC5=O)CC4)cc3)nc2n1-c1cccc(C(C)(C)O)n1` (centres unmarked) [Compound 47], on HiBiT tagged Wee1, the half-maximal degradation concentration (DC50) was in the range of 100 to 1000 nM and the greatest degradation seen (Dmax) was in the range of 50 to 75%. Further, the concentration for half-maximal inhibition (IC50) in the assay with NCI-H1048 cells (Homo sapiens) was no more than 25 nM.

In the case of `C=CCn1c(=O)c2cnc(Nc3ccc(N4CCN(C5CCN(c6ccc(NC7CCC(=O)NC7=O)cc6F)CC5)CC4)cc3)nc2n1-c1ccc2c(n1)[C@@](O)(CC)CC2` (some centres unmarked) [Compound 157], the 50% degradation concentration (DC50) on HiBiT tagged Wee1 was less than 100 nM. The IC50 in the assay with NCI-H1048 cells (Homo sapiens) was no more than 25 nM.

For the compound `C=CCn1c(=O)c2cnc(Nc3ccc(N4CCC(N5CC6(CN(c7ccc(NC8CCC(=O)NC8=O)cc7F)C6)C5)CC4)cc3)nc2n1-c1ccc2c(n1)[C@@](O)(CC)CC2` (some centres unmarked) [Compound 156], the DC50 on HiBiT tagged Wee1 was less than 100 nM. Also, the IC50 in the assay with NCI-H1048 cells (Homo sapiens) was no more than 25 nM.

Consider `C=CCn1c(=O)c2cnc(Nc3ccc(N4CCC(CN5CCN(c6cccc7c(C8CCC(=O)NC8=O)nn(C)c67)CC5)CC4)cc3)nc2n1-c1cccc(C(C)(C)O)n1` (centres unmarked) [Compound 144], for which, at HiBiT tagged Wee1, the DC50 was less than 100 nM and the maximal degradation (Dmax) is greater than 75%. The IC50 in the assay on NCI-H1048 cells (Homo sapiens) was no more than 25 nM.

Consider `C=CCn1c(=O)c2cnc(Nc3ccc4c(c3)CN(CC3CN(c5ccc6c(c5)C(=O)N(C5CCC(=O)NC5=O)C6=O)C3)CC4)nc2n1-c1cccc(C(C)(C)O)n1` (centres unmarked) [Compound 6], for which, at HiBiT tagged Wee1, the DC50 is greater than 1000 nM and the maximal degradation (Dmax) was less than 50%. Besides, the IC50 with NCI-H1048 cells (Homo sapiens) is greater than 100 nM.

As to `C=CCn1c(=O)c2cnc(Nc3ccc(N4CCC(CN(C)C5CCN(c6ccc(NC7CCC(=O)NC7=O)cc6F)CC5)CC4)cc3)nc2n1-c1cccc(C(C)(C)O)n1` (centres unmarked) [Compound 91], on HiBiT tagged Wee1, the DC50 was less than 100 nM and the Dmax is greater than 75%. Also, the concentration for half-maximal inhibition (IC50) in the assay on NCI-H1048 cells (Homo sapiens) was no more than 25 nM.

For `C=CCn1c(=O)c2cnc(Nc3ccc(N4CCN(CCCCc5cccc6c5n(C)c(=O)n6C5CCC(=O)NC5=O)CC4)cc3)nc2n1-c1cccc(C(C)(C)O)n1` (centres unmarked) [Compound 51], on HiBiT tagged Wee1, the DC50 is less than 100 nM and the Dmax was 50 to 75%. Also, the IC50 in the assay with NCI-H1048 cells (Homo sapiens) was no more than 25 nM.

For `C=CCn1c(=O)c2cnc(Nc3ccc(N4CCN(CC5CCN(c6ccc7c(N8CCC(=O)NC8=O)nn(C)c7c6)CC5)CC4)c(C)c3)nc2n1-c1ccc2c(n1)[C@@](O)(CC)CC2` [Compound 129], at HiBiT tagged Wee1, the DC50 is less than 100 nM and the greatest degradation seen (Dmax) lay within 50 to 75%. Further, in the assay on NCI-H1048 cells (Homo sapiens), the 50% inhibitory concentration (IC50) was no more than 25 nM.

On to `C=CCn1c(=O)c2cnc(Nc3ccc(N4CCN(CC5CCN(c6ncc(NC7CCC(=O)NC7=O)cc6Cl)CC5)CC4)cc3)nc2n1-c1ccc2c(n1)[C@@](O)(CC)CC2` (some centres unmarked) [Compound 181], for which, at HiBiT tagged Wee1, the DC50 is less than 100 nM and the greatest degradation seen (Dmax) is greater than 75%. For the same compound, the half-inhibitory concentration (IC50) with NCI-H1048 cells (Homo sapiens) is no more than 25 nM.

As to `C=CCn1c(=O)c2cnc(Nc3ccc(N4CCN(CCCc5ccc6c(c5)n(C)c(=O)n6C5CCC(=O)NC5=O)CC4)cc3)nc2n1-c1cccc(C(C)(C)O)n1` (centres unmarked) [Compound 46], at HiBiT tagged Wee1, the half-maximal degradation concentration (DC50) was less than 100 nM and the greatest degradation seen (Dmax) lay within 50 to 75%. Moreover, the IC50 in the assay with NCI-H1048 cells (Homo sapiens) is 25 to 100 nM.

On to `C=CCn1c(=O)c2cnc(Nc3ccc(N4CCN(C5CC6(C5)CN(c5ccc(NC7CCC(=O)NC7=O)cc5F)C6)CC4)cc3)nc2n1-c1ccc2c(n1)[C@@](O)(CC)CC2` (some centres unmarked) [Compound 168], for which, at HiBiT tagged Wee1, the DC50 was less than 100 nM and the Dmax is greater than 75%. For the same compound, the concentration for half-maximal inhibition (IC50) with NCI-H1048 cells (Homo sapiens) was no more than 25 nM.

`Cc1cc(Nc2ncc3c(n2)N(C)CN(c2c(Cl)cccc2Cl)C3=O)ccc1C1CCN(CC2CCN(c3ccc4c(c3)C(=O)N(C3CCC(=O)NC3=O)C4=O)CC2)CC1` (centres unmarked) [Compound 16]: at HiBiT tagged Wee1, the half-maximal degradation concentration (DC50) is greater than 1000 nM and the greatest degradation seen (Dmax) is less than 50%. Besides, the IC50 in the assay on NCI-H1048 cells (Homo sapiens) was greater than 100 nM.

Consider `C=CCn1c(=O)c2cnc(Nc3ccc(C4CCN(CC5CCN(c6cccc7c6n(C)c(=O)n7C6CCC(=O)NC6=O)CC5)CC4)c(C)c3)nc2n1-c1cccc(C(C)(C)O)n1` (centres unmarked) [Compound 97], for which the greatest degradation seen (Dmax) at HiBiT tagged Wee1 is 50 to 75%. Also, the IC50 with NCI-H1048 cells (Homo sapiens) was no more than 25 nM.

On to `C=CCn1c(=O)c2cnc(Nc3ccc(N4CCC(CN5CCN(c6ccc(NC7CCC(=O)NC7=O)cc6F)CC5)CC4)cc3)nc2n1-c1ccc2c(n1)[C@@](C)(O)CC2` (single isomer, unassigned) [Compound 121], for which, at HiBiT tagged Wee1, the DC50 was less than 100 nM and the Dmax was greater than 75%. In addition, in the assay with NCI-H1048 cells (Homo sapiens), the 50% inhibitory concentration (IC50) is no more than 25 nM.

Consider `C=CCn1c(=O)c2cnc(Nc3ccc(C4CCN(CC5CN(c6ccc7c(c6)C(=O)N(C6CCC(=O)NC6=O)C7=O)C5)CC4)cc3)nc2n1-c1cccc(C(C)(C)O)n1` (centres unmarked) [Compound 9], for which, on HiBiT tagged Wee1, the DC50 is less than 100 nM and the Dmax was 50 to 75%. For the same compound, the IC50 in the assay on NCI-H1048 cells (Homo sapiens) lay in the range of 25 to 100 nM.

`C=CCn1c(=O)c2cnc(Nc3ccc(N4CCC(CN5CCN(c6ccc(NC7CCC(=O)NC7=O)cc6F)CC5)CC4)cc3)nc2n1-c1cccc(C(C)(C)O)n1` (single isomer, unassigned) [Compound 100-B] showed a half-maximal degradation concentration (DC50) on HiBiT tagged Wee1 of less than 100 nM. For the same compound, the IC50 with NCI-H1048 cells was no more than 25 nM.

Take `O=C1CCC(N2C(=O)c3ccc(N4CCC(CN5CCC(c6ccc(Nc7ncc8c(=O)n(-c9c(Cl)cccc9Cl)c9nccn9c8n7)cc6)CC5)CC4)cc3C2=O)C(=O)N1` (centres unmarked) [Compound 14]: on HiBiT tagged Wee1, the DC50 is less than 100 nM and the maximal degradation (Dmax) was in the range of 50 to 75%. Besides, in the assay with NCI-H1048 cells (Homo sapiens), the IC50 fell in the range of 25 to 100 nM.

For `C=CCn1c(=O)c2cnc(Nc3ccc(N4CCC(CN5CCC(c6cccc7c6n(C)c(=O)n7C6CCC(=O)NC6=O)CC5)CC4)cc3)nc2n1-c1ccc2c(n1)[C@@](O)(CC)CC2` (some centres unmarked) [Compound 54], at HiBiT tagged Wee1, the DC50 is less than 100 nM and the greatest degradation seen (Dmax) is 50 to 75%. Moreover, the concentration for half-maximal inhibition (IC50) in the assay with NCI-H1048 cells (Homo sapiens) was 25 to 100 nM.

As for `C=CCn1c(=O)c2cnc(Nc3ccc(N4CCC(CN5CCN(c6ccc7c(C8CCC(=O)NC8=O)nn(C)c7c6)CC5)CC4)cc3)nc2n1-c1cccc(C(C)(C)O)n1` (centres unmarked) [Compound 106], at HiBiT tagged Wee1, the DC50 was less than 100 nM and the greatest degradation seen (Dmax) is greater than 75%. Further, the IC50 with NCI-H1048 cells (Homo sapiens) is no more than 25 nM.

With `C=CCn1c(=O)c2cnc(Nc3ccc(N4CCN(CC5CCN(c6ccc7c(N8CCC(=O)NC8=O)nn(C)c7c6)CC5)CC4)cc3)nc2n1-c1ccc2c(n1)[C@@](O)(CC)CC2` [Compound 114], at HiBiT tagged Wee1, the half-maximal degradation concentration (DC50) was less than 100 nM and the Dmax is greater than 75%. Also, in the assay on NCI-H1048 cells (Homo sapiens), the half-inhibitory concentration (IC50) is no more than 25 nM.

For `C=CCn1c(=O)c2cnc(Nc3ccc(N4CCN(C5CCN(c6ccc(NC7CCC(=O)NC7=O)cc6F)CC5)CC4)cc3)nc2n1-c1cccc(C(C)(C)O)n1` (centres unmarked) [Compound 93], on HiBiT tagged Wee1, the 50% degradation concentration (DC50) is less than 100 nM and the greatest degradation seen (Dmax) is greater than 75%. Moreover, the half-inhibitory concentration (IC50) with NCI-H1048 cells (Homo sapiens) is no more than 25 nM.

For the compound `C=CCn1c(=O)c2cnc(Nc3ccc(N4CCN(CC5CCN(c6ccc7c(N8CCC(=O)NC8=O)nn(C)c7c6)CC5)CC4)cc3)nc2n1-c1cccc(C(C)(C)O)n1` [Compound 105], at HiBiT tagged Wee1, the half-maximal degradation concentration (DC50) was less than 100 nM and the greatest degradation seen (Dmax) is greater than 75%. Also, the half-maximal inhibitory concentration (IC50) with NCI-H1048 cells (Homo sapiens) was no more than 25 nM.
